For one assay, the target named is Histone deacetylase 1 (Homo sapiens, UniProt Q13547). In words: Inhibition of human recombinant HDAC1 after 1 hr by luminescence assay.
Another assay has as its target Histone deacetylase 4 (Homo sapiens, UniProt P56524). In words: Inhibition of human recombinant HDAC4 after 1 hr by luminescence assay.
The target of assay [1] is T1, Protein deacetylase HDAC6 (Homo sapiens, UniProt Q9UBN7).
T1 sequence (Q9UBN7 whole entry): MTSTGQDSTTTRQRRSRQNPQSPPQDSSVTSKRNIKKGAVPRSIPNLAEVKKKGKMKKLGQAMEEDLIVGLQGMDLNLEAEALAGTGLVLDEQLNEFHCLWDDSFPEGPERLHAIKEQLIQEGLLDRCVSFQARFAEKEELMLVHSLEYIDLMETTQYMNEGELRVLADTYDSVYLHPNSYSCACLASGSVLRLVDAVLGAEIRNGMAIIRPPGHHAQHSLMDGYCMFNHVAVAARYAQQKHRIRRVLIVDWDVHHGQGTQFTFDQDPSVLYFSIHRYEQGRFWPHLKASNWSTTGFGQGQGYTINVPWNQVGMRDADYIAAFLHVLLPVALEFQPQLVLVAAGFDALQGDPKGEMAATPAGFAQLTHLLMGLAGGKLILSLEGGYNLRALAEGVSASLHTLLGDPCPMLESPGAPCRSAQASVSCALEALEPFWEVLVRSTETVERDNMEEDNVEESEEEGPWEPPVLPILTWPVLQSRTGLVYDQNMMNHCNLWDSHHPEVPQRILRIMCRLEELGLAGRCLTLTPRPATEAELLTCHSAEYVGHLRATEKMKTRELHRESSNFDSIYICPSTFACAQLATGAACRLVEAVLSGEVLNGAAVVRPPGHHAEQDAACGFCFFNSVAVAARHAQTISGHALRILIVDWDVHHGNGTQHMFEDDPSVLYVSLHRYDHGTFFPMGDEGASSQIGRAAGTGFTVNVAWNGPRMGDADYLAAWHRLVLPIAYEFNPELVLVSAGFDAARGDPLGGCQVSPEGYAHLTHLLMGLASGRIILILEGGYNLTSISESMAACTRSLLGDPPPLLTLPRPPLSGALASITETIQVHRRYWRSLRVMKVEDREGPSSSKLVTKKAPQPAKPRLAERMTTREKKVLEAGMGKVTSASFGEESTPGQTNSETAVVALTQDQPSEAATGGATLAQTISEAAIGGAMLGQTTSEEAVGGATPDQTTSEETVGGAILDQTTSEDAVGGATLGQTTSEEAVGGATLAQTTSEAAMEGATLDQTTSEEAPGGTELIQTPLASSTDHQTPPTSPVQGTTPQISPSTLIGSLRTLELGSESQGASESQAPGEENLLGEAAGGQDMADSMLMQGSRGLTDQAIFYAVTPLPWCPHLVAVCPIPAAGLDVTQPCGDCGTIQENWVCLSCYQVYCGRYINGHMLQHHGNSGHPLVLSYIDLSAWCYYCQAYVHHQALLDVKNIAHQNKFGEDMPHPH
In words: Inhibition of human recombinant HDAC6 after 1 hr by luminescence assay.

Histone deacetylase 1, sequence (Q13547 whole entry): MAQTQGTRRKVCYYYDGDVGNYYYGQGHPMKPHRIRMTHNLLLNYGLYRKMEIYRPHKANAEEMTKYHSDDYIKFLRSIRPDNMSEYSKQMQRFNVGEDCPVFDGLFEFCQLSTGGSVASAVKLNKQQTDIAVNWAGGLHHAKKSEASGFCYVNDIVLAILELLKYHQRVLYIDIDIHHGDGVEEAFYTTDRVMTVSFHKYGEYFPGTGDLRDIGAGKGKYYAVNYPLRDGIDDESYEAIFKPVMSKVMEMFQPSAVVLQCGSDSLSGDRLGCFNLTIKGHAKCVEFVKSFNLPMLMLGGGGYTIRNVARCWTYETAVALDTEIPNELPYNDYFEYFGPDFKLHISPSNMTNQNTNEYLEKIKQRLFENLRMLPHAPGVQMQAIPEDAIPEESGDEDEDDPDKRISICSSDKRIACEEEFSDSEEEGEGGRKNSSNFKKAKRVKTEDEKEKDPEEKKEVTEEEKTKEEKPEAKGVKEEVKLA
Histone deacetylase 4, sequence (P56524 whole entry): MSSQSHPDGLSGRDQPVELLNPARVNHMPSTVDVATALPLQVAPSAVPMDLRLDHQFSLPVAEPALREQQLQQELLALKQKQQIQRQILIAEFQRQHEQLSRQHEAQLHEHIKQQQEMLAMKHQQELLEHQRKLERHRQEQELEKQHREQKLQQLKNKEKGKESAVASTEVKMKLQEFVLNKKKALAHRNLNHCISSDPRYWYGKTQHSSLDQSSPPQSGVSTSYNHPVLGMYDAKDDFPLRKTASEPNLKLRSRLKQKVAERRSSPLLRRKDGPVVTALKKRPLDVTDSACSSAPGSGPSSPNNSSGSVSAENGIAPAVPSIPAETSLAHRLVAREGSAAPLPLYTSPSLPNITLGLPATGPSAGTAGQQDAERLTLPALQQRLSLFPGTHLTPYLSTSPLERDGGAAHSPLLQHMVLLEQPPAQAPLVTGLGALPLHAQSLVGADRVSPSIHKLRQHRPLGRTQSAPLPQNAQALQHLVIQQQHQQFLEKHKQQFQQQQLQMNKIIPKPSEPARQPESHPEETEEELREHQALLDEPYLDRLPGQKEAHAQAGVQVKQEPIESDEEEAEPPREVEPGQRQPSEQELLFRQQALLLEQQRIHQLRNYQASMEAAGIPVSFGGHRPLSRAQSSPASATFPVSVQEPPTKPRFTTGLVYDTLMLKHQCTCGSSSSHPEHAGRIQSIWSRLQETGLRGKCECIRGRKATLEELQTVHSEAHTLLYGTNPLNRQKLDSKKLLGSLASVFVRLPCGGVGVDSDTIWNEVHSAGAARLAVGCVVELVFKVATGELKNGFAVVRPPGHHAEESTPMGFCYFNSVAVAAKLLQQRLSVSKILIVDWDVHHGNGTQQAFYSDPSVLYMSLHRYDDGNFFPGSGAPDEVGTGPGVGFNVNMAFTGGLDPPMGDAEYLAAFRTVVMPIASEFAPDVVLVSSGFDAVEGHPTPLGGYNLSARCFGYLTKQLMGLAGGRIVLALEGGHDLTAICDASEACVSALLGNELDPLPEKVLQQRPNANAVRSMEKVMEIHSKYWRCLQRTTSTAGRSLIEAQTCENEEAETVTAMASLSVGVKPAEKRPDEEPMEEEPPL

By IC50 is commonly meant the concentration needed to halve the response being measured. Take `CSCC[C@H]1NC(=O)C[C@H]2/C=C/CCSSC[C@@H](NC1=O)C(=O)N[C@H](CC(C)C)[C@@H](O)CC(=O)O2`: the IC50 on Histone deacetylase 1 was found to be 0.94 nM; at Histone deacetylase 4, 58900 nM; in assay [1] it was 1680 nM.
For `CCCC[C@H]1NC(=O)C[C@H]2/C=C/CCSSC[C@@H](NC1=O)C(=O)N[C@H](C(C)C)[C@@H](O)CC(=O)O2` the same measures were 0.48 nM, 47000 nM and 930 nM.
For `CCCC[C@H]1NC(=O)C[C@H]2/C=C/CCSSC[C@@H](NC1=O)C(=O)N[C@H]([C@@H](C)CC)[C@@H](O)CC(=O)O2` [THAILANDEPSIN B] the same measures were 1.2 nM, 57400 nM and 1190 nM.
In the same order, the values of `CC[C@H](C)[C@H]1NC(=O)[C@H]2CSSCC/C=C/[C@H](CC(=O)N[C@H](CCSC)C(=O)N2)OC(=O)C[C@@H]1O` [THAILANDEPSIN A] are 0.28 nM, 37200 nM and 830 nM.
On to `C/C=C1\NC(=O)[C@H]2CSSCC/C=C/[C@H](CC(=O)N[C@H](C(C)C)C(=O)N2)OC(=O)[C@H](C(C)C)NC1=O` [ROMIDEPSIN], for which the IC50 at Histone deacetylase 4 was found to be 8670 nM.
As to `CSCC[C@H]1NC(=O)C[C@H]2/C=C/CCSSC[C@@H](NC1=O)C(=O)N[C@H](C(C)C)[C@@H](O)CC(=O)O2`, the IC50 at Histone deacetylase 1 was determined as 0.2 nM; at Histone deacetylase 4, 38000 nM; in assay [1], 780 nM.
On to `CCCC[C@H]1NC(=O)C[C@H]2/C=C/CCSSC[C@@H](NC1=O)C(=O)N[C@H](CC(C)C)[C@@H](O)CC(=O)O2`, for which the IC50 is 2.6 nM at Histone deacetylase 1, 132000 nM at Histone deacetylase 4 and 1920 nM in assay [1].
